ChEMBL document CHEMBL1177834, “ADMET rules of thumb II: A comparison of the effects of common substituents on a range of ADMET parameters” (Bioorg Med Chem, 2009)

target: Cytochrome P450 2C9 (Homo sapiens, UniProt P11712); assay: Inhibition of CYP2C9; format: ADME
Sequence (P11712 whole entry): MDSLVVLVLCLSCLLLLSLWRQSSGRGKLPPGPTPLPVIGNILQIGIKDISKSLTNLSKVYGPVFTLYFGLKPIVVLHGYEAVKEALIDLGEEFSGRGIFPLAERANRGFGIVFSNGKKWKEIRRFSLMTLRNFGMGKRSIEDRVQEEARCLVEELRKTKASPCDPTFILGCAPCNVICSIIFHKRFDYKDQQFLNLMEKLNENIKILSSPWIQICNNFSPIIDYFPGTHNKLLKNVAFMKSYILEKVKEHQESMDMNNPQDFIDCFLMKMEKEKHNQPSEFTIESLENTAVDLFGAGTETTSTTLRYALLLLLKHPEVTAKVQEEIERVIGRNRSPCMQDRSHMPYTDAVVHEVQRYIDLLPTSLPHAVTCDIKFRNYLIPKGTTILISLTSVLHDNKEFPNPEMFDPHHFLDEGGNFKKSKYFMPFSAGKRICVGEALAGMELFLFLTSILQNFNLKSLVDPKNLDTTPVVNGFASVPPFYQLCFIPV

Compound | IC50 [µM]
C[C@H](NC(=O)c1c(Cc2cncnc2)c(-c2cccs2)nc2ccccc12)C1CCCCC1 | 31.6
Cc1ccc2c(N3CCN(CCc4cccc(-c5cncnc5)c4)CC3)cccc2n1 | 20
O=C(Cn1c(CCc2cccc(F)c2F)nc(=O)c2ccccc21)N(Cc1ccc(-c2ccc(C(F)(F)F)cc2)cc1)C1CCN(c2ccncn2)CC1 | 0.0794
Cc1c(-c2cccs2)nc2ccccc2c1C(=O)N[C@@H](C)C1CCCCC1 | 20
Cc1c(-c2ccccc2)nc2ccccc2c1C(=O)N[C@@H](c1cccc(F)c1)C1CC1 | 7.94
Cc1ccc2c(N3CCN(CCc4ccc(F)c(-c5cncnc5)c4)CC3)cccc2n1 | 10
Cc1ccc2c(N3CCN(CCc4ccccc4)CC3)cccc2n1 | 39.8
O=C(Cn1c(CCc2cccc(F)c2F)nc(=O)c2cccnc21)N(Cc1ccc(-c2ccc(C(F)(F)F)cc2)cc1)C1CCNCC1 | 20
O=C(N[C@@H](c1cccc(F)c1)C1CC1)c1c(Cc2cncnc2)c(-c2ccccc2)nc2ccccc12 | 10
O=C(Cn1c(CCc2cccc(F)c2F)nc(=O)c2cccnc21)N(Cc1ccc(-c2ccc(C(F)(F)F)cc2)cc1)C1CCN(c2ccncn2)CC1 | 0.1
O=C(Cn1c(CCc2cccc(F)c2F)nc(=O)c2ccccc21)N(Cc1ccc(-c2ccc(C(F)(F)F)cc2)cc1)C1CCNCC1 | 15.8
Cc1ccc2c(N3CCN(CCc4ccc(F)cc4)CC3)cccc2n1 | 31.6
